Values quoted from earlier work, collected in publication PMC3800486 (Amino acids, 2013).

System: polo-like kinase 1 (Plk1) polo box domain (PBD)
Conditions: previously shown; ref Yun et al. 2009; Liu et al. 2011; Liu et al. 2012b, a

Ac-Pro-Leu-His-Ser-Pmab-amide
affinity for the Plk1 PBD (in words): good affinity
